Measured values taken from ChEMBL document CHEMBL3862010, “N-Arylsulfonyl-α-amino carboxamides are potent and selective inhibitors of the chemokine receptor CCR10 that show efficacy in the murine DNFB model of contact hypersensitivity” (Bioorg Med Chem Lett, 2016).
pIC50: −log10 of the molar value. Blank lines part the entries; values can stand above or below the molecule they belong to.

Assays:
[1] = target: T1, C-C chemokine receptor type 10 (Homo sapiens, UniProt P46092); experiment: Antagonist activity at human CCR10 expressed in CHOK1 cells coexpressing aequorin/Galphaq assessed as inhibition of human CCL27-dependent calcium flux in presence of coelenterazine H by chemiluminescence assay; assay type: functional, cell-based, CHO-K1; conditions: read-out: pIC50 (converted)
T1 sequence (P46092 whole entry): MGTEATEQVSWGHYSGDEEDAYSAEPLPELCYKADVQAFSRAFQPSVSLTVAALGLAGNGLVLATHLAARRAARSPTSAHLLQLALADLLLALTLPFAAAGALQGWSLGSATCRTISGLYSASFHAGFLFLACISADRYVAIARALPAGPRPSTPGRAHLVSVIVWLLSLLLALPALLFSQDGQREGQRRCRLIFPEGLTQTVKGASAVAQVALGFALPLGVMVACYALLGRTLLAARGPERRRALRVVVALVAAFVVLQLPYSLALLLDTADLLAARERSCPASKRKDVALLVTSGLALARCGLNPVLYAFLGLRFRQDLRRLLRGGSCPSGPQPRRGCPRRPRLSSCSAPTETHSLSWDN

[2] = target: T2, C-C chemokine receptor type 10 (Mus musculus, UniProt Q9JL21); experiment: Antagonist activity at mouse CCR10 expressed in CHOK1 cells coexpressing aequorin/Galphaq assessed as inhibition of CCL27-dependent calcium flux in presence of coelenterazine H by chemiluminescence assay; assay type: functional, cell-based, CHO-K1
T2 sequence (Q9JL21 whole entry): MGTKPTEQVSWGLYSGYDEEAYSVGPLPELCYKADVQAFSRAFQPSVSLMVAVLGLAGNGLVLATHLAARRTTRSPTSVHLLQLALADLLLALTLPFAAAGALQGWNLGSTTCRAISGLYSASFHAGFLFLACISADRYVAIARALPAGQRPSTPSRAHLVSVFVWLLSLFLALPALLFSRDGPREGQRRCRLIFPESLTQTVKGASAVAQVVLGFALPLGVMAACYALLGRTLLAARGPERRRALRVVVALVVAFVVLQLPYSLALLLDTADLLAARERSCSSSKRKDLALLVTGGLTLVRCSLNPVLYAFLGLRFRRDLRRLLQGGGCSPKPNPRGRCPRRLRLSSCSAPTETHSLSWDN

[3] = target: Adrenergic receptor alpha-1 (Rattus norvegicus) (UniProt P15823+P23944+P43140); experiment: Binding affinity to rat adrenergic alpha1 receptor at 10 uM relative to control
[4] = target: Adrenergic receptor alpha-2 (Rattus norvegicus) (UniProt P22086+P19328+P22909); experiment: Binding affinity to rat adrenergic alpha2 receptor at 10 uM relative to control
[5] = target: Adrenergic receptor beta (Rattus norvegicus) (UniProt P18090+P10608+P26255); experiment: Binding affinity to rat adrenergic beta receptor at 10 uM relative to control
[6] = target: Type-1 angiotensin II receptor (Homo sapiens) (UniProt P30556); experiment: Binding affinity to human AT1 receptor at 10 uM relative to control
[7] = target: B2 bradykinin receptor (Homo sapiens) (UniProt P30411); experiment: Binding affinity to human B2 bradykinin receptor at 10 uM relative to control
[8] = target: D(1A) dopamine receptor (Homo sapiens) (UniProt P21728); experiment: Binding affinity to human dopamine D1 receptor at 10 uM relative to control
[9] = target: D(2) dopamine receptor (Homo sapiens) (UniProt P14416); experiment: Binding affinity to human dopamine D2L receptor at 10 uM relative to control
[10] = target: D(3) dopamine receptor (Homo sapiens) (UniProt P35462); experiment: Binding affinity to human dopamine D3 receptor at 10 uM relative to control
Rattus norvegicus [11] = species on record: Rattus norvegicus; experiment: Binding affinity to rat GABA-A receptor at 10 uM relative to control
Rattus norvegicus [12] = species on record: Rattus norvegicus; experiment: Binding affinity to rat GABA-B receptor at 10 uM relative to control
Rattus norvegicus [13] = species on record: Rattus norvegicus; experiment: Binding affinity to rat glutamate receptor at 10 uM relative to control
[14] = target: Histamine H1 receptor (Homo sapiens) (UniProt P35367); experiment: Binding affinity to human histamine H1 receptor at 10 uM relative to control
[15] = target: Histamine H2 receptor (Homo sapiens) (UniProt P25021); experiment: Binding affinity to human histamine H2 receptor at 10 uM relative to control
Homo sapiens [16] = species on record: Homo sapiens; experiment: Binding affinity to human IL-8 receptor at 10 uM relative to control
Rattus norvegicus [17] = species on record: Rattus norvegicus; experiment: Binding affinity to rat muscarinic acetylcholine receptor at 10 uM relative to control
Homo sapiens [18] = species on record: Homo sapiens; experiment: Binding affinity to human nicotinic acetylcholine receptor at 10 uM relative to control
Rattus norvegicus [19] = species on record: Rattus norvegicus; experiment: Binding affinity to rat 5-HT1 receptor at 10 uM relative to control
[20] = target: 5-hydroxytryptamine receptor 2A (Rattus norvegicus) (UniProt P14842); experiment: Binding affinity to rat 5-HT2 receptor at 10 uM relative to control
[21] = target: 5-hydroxytryptamine receptor 3A (Homo sapiens) (UniProt P46098); experiment: Binding affinity to human 5-HT3 receptor at 10 uM relative to control
Mus musculus = experiment: Antiinflammatory activity in Balb/C mouse model of contact hypersensitivity assessed as inhibition of DNFB-stimulated ear swelling administered ip bid at 0 and 8 hrs measured 24 hrs post DNFB stimulation; assay type: functional, organism-based
[22] = target: C-C chemokine receptor type 4 (Homo sapiens) (UniProt P51679); experiment: Antagonist activity at human CCR4 assessed as inhibition of CCL22-induced calcium flux at 10 uM relative to control; assay type: functional
C-C chemokine receptor type 4 (Homo sapiens), sequence (P51679 whole entry): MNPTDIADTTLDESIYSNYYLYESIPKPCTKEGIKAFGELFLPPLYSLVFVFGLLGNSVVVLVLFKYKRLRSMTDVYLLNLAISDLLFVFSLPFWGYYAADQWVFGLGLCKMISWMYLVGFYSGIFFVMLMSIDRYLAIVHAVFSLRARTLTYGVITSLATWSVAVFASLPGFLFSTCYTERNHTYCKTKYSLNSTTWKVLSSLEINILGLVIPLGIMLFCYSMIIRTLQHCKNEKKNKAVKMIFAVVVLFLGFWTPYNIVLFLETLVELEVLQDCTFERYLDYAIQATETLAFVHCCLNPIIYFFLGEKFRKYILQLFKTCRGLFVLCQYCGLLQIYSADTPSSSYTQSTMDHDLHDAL

5-hydroxytryptamine receptor 3A (Homo sapiens), sequence (P46098 whole entry): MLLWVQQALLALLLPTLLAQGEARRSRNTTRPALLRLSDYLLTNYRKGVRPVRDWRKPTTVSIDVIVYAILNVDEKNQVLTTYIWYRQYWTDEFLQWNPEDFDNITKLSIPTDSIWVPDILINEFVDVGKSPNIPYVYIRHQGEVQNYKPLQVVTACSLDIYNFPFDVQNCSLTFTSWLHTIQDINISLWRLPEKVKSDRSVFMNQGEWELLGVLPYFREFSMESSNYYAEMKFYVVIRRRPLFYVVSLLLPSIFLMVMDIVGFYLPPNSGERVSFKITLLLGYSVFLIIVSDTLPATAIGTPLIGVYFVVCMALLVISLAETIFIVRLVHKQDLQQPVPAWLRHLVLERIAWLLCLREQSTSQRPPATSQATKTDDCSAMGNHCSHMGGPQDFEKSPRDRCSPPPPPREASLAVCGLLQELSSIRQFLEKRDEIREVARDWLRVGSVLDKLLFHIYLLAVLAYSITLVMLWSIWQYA
Type-1 angiotensin II receptor (Homo sapiens), sequence (P30556 whole entry): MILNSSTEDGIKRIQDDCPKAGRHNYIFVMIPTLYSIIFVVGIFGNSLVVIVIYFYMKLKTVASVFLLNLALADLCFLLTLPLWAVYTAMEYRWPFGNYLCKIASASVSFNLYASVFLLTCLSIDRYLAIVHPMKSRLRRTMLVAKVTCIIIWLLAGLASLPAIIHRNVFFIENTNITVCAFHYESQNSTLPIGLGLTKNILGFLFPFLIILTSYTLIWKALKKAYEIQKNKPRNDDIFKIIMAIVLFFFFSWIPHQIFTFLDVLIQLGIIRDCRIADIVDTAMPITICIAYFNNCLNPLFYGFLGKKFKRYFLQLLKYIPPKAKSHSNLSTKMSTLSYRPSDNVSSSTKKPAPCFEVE
Histamine H1 receptor (Homo sapiens), sequence (P35367 whole entry): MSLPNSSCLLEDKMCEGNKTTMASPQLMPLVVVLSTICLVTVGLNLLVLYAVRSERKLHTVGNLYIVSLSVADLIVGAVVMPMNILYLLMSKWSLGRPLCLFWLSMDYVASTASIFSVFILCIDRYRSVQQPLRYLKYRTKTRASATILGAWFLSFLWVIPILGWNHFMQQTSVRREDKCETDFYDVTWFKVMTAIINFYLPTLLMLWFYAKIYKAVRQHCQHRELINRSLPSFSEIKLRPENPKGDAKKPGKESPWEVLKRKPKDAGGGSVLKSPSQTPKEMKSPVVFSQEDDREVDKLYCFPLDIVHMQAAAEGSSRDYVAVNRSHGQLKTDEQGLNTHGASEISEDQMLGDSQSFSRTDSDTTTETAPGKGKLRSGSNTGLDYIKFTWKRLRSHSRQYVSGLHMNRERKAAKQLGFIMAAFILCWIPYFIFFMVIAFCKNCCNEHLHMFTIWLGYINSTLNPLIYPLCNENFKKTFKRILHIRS
Histamine H2 receptor (Homo sapiens), sequence (P25021 whole entry): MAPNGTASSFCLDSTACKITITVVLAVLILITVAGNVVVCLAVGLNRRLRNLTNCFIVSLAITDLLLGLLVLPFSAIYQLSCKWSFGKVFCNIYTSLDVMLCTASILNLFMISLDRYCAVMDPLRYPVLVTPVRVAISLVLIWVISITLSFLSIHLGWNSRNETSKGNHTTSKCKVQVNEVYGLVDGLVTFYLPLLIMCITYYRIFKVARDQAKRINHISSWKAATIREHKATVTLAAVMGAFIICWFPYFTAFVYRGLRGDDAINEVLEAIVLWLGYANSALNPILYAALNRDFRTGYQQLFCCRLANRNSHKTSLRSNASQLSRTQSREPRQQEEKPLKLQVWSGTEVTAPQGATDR
D(3) dopamine receptor (Homo sapiens), sequence (P35462 whole entry): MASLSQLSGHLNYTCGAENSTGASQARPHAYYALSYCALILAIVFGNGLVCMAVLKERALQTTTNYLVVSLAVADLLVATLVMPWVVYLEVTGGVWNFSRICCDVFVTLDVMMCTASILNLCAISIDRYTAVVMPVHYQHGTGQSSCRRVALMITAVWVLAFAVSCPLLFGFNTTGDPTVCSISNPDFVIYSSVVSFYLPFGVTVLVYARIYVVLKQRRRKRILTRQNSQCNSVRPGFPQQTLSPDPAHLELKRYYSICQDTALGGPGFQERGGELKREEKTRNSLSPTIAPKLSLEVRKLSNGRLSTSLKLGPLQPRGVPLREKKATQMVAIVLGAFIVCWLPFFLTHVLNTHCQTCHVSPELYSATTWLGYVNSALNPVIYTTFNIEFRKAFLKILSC
D(2) dopamine receptor (Homo sapiens), sequence (P14416 whole entry): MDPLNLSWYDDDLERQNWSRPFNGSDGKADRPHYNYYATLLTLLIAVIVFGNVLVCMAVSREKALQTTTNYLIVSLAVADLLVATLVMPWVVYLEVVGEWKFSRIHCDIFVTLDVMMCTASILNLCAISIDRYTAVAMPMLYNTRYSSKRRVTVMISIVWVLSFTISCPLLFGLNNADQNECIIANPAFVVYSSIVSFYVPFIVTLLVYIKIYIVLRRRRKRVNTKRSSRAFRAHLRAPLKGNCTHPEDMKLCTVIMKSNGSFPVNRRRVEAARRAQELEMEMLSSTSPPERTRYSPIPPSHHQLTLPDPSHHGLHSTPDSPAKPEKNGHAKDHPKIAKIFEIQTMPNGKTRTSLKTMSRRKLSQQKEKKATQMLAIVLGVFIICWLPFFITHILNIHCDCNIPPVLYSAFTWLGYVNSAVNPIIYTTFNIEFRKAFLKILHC
5-hydroxytryptamine receptor 2A (Rattus norvegicus), sequence (P14842 whole entry): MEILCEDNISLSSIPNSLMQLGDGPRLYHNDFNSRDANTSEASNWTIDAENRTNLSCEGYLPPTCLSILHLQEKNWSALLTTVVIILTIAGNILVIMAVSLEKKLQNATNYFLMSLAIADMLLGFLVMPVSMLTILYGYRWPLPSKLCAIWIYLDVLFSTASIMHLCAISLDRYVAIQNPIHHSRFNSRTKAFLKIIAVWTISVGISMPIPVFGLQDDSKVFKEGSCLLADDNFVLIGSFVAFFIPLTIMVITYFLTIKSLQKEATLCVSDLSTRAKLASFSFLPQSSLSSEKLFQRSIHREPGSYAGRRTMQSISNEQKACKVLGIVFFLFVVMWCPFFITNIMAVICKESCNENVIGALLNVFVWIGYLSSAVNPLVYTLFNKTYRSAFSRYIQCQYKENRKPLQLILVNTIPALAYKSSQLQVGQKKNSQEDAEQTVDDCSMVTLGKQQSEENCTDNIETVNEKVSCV
B2 bradykinin receptor (Homo sapiens), sequence (P30411 whole entry): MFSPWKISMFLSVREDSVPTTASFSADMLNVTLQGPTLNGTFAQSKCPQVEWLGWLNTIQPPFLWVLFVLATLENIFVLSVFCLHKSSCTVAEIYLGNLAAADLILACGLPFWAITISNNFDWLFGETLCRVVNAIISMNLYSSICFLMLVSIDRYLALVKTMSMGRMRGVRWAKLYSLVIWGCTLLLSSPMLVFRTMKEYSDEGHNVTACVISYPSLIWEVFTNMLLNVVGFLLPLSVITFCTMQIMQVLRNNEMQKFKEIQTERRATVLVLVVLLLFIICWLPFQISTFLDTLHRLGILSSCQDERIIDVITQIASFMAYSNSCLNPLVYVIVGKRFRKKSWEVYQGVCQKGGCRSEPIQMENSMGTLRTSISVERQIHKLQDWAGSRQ
D(1A) dopamine receptor (Homo sapiens), sequence (P21728 whole entry): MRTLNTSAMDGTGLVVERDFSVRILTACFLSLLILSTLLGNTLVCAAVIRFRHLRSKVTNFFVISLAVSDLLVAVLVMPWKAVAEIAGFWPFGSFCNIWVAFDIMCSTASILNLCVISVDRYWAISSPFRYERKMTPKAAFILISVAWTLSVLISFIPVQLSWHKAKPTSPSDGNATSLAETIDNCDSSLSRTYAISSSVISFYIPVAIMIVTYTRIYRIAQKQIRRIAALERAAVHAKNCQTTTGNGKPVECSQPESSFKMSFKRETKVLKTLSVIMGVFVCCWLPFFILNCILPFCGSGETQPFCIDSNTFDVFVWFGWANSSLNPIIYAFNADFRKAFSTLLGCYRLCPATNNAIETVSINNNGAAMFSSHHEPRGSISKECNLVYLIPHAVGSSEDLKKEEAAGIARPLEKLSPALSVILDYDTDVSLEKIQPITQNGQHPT

IC50 [1]: 15800 nM
Compound: CC1CCN(C(=O)[C@H](CCn2cccc2C#N)NS(=O)(=O)c2cc(Cl)c(N)c(Cl)c2)CC1

IC50 [1]: 251 nM | pIC50 [2]: 5.10
Compound: CC1CCN(C(=O)C(CCn2cccc2C#N)NS(=O)(=O)c2cccc3cc[nH]c23)CC1 (stereo not given)

IC50 [1]: 501 nM
Compound: CC1CCN(C(=O)C(CCn2ccnc2C#N)NS(=O)(=O)c2cc(Cl)c(N)c(Cl)c2)CC1 (stereo not given)

Activity [3]: < 10% | Activity [4]: < 10% | Activity [5]: < 10% | Activity [6]: < 10% | Activity [7]: < 10% | Activity [8]: < 10% | Activity [9]: < 10% | Activity [10]: < 10% | Activity (Rattus norvegicus [11]): < 10% | Activity (Rattus norvegicus [12]): < 10% | Activity (Rattus norvegicus [13]): < 10% | Activity [14]: < 10% | Activity [15]: < 10% | Activity (Homo sapiens [16]): < 10% | Activity (Rattus norvegicus [17]): 22% | Activity (Homo sapiens [18]): < 10% | Activity (Rattus norvegicus [19]): 19% | Activity [20]: < 10% | Activity [21]: < 10% | inhibition [22]: < 10%
Compound: CC1CCN(C(=O)C(CCn2cccc2C#N)NS(=O)(=O)c2cccc3[nH]ccc23)CC1 (stereo in doubt; form 1)
inhibition (Mus musculus): Dose-dependent effect

IC50 [1]: 3980 nM
Compound: CN(C)C(=O)C(CCn1cccc1C#N)NS(=O)(=O)c1cccc2[nH]ccc12 (stereo not given)

IC50 [1]: 100 nM
Compound: Cc1ccc(S(=O)(=O)NC(CCn2cccc2C#N)C(=O)N2CCC(C)CC2)c(C)c1N (stereo not given)

IC50 [1]: 631 nM
Compound: CC1CCCN(C(=O)C(CCn2cccc2C#N)NS(=O)(=O)c2cc(Cl)c(N)c(Cl)c2)C1 (stereo not given)

IC50 [1]: > 20000 nM
Compound: CC1CCN(C(=O)[C@H](CCn2ccnc2[N+](=O)[O-])NS(=O)(=O)c2cc(Cl)c(N)c(Cl)c2)CC1

IC50 [1]: 7.94 nM | pIC50 [2]: 6.00
Compound: CC1CCN(C(=O)C(CCn2cccc2C#N)NS(=O)(=O)c2ccc3cc[nH]c3c2)CC1 (stereo not given)

IC50 [1]: 1580 nM
Compound: CC1CCN(C(=O)C(CCn2cccn2)NS(=O)(=O)c2cc(Cl)c(N)c(Cl)c2)CC1 (stereo not given)

IC50 [1]: 25.1 nM
Compound: N#Cc1cccn1CCC(NS(=O)(=O)c1cccc2[nH]ccc12)C(=O)N1CCCCCC1 (stereo not given)

IC50 [1]: 3160 nM
Compound: CC1CCN(C(=O)C(CCn2nccn2)NS(=O)(=O)c2cc(Cl)c(N)c(Cl)c2)CC1 (stereo not given)

IC50 [1]: 200 nM
Compound: CC1CCN(C(=O)C(CCn2cccc2C#N)NS(=O)(=O)c2ccc3[nH]ccc3c2)CC1 (stereo not given)

IC50 [1]: 63.1 nM | pIC50 [2]: 5.50
Compound: CC1CCN(C(=O)C(CCn2nccc2C#N)NS(=O)(=O)c2cc(Cl)c(N)c(Cl)c2)CC1 (stereo not given)

IC50 [1]: 126 nM
Compound: N#Cc1cccn1CCC(NS(=O)(=O)c1cccc2[nH]ccc12)C(=O)N1CCC(O)CC1 (stereo not given)

IC50 [1]: > 20000 nM
Compound: CC1CCN(C(=O)C(CCn2cncn2)NS(=O)(=O)c2cc(Cl)c(N)c(Cl)c2)CC1 (stereo not given)

IC50 [1]: 50.1 nM
Compound: CC1CCN(C(=O)C(CCn2cccc2C#N)NS(=O)(=O)c2cccc3ccccc23)CC1 (stereo not given)

IC50 [1]: > 10000 nM
Compound: CN(C)C(=O)C(CCn1cccc1C#N)NS(=O)(=O)c1cc(Cl)c(N)c(Cl)c1 (stereo not given)

IC50 [1]: 63.1 nM
Compound: CC1CCN(C(=O)C(CCn2cccc2C#N)NS(=O)(=O)c2cc(Cl)c(N)cc2Cl)CC1 (stereo not given)

IC50 [1]: 631 nM | pIC50 [2]: 5.00
Compound: CC1CCN(C(=O)[C@@H](CCc2ccccc2)NS(=O)(=O)c2cc(Cl)c(N)c(Cl)c2)CC1

IC50 [1]: 63.1 nM
Compound: CC1CCCN(C(=O)C(CCn2cccc2C#N)NS(=O)(=O)c2cccc3[nH]ccc23)C1 (stereo not given)
